One experiment deals with T1, PDE4A enzyme (Homo sapiens, UniProt P27815).
T1 construct: GST (N); host or cells: Sf9 insect cells (baculovirus)
The experiment is described as follows: Inhibition of the activity of PDE4A enzyme (fluorescence polarization, Transcreener AMP2/GMP2). The class given is biochemical. To be noted: 1 h, mean ± spread; for remaining activity at 0.01 µM: 0.01 μM compound; for remaining activity at 0.1 µM: 0.1 μM compound; for remaining activity at 1 µM: 1 μM compound. On the procedure: The PDE4A enzyme expressed from baculovirus is labeled with N-terminal GST from Sf9 insect cells. A specified PDE4A enzyme and 1 mM cAMP are added to the newly prepared pH 7.5 Tris buffer, the enzyme solution is transferred into reaction wells, and the compound is sonicated in DMSO and then added to the enzyme solution for culturing for 10 minutes at room temperature; the substrate solution is poured into the reaction wells to initiate the reaction and cultured at room temperature for 1 hour, and a detection tracer (AMP2/GMP2 AlexaFluor 633 Tracer) and an antibody (Transcreener® AMP2/GMP2 Antibody) are added to stop the reaction for culturing for 90 minutes with gentle mixing. […]
(In fluorescence polarisation assays a small probe gives low polarisation when free and higher when bound to something large.)

Experiment [1] relates to DNCB-induced atopic dermatitis mice. Nature of the experiment: DNCB-induced dermatitis mouse model, skin thickness. It counts as in vivo, female BALB/C mice. To be noted: for Epidermal thickness / Dermis thickness: 50 mg/mL, 100 μL applied to back skin, 11 times once a day, Mean ± SD, n = 8; for Epidermal thickness: model 137.76, blank 48.93; for Dermis thickness: model 500.71, blank 194.70. As to the method: After female BALB/C mice are selected, each weighing 18-22 g, for animal adaptive breeding for 7 days, these are randomly divided into a blank group, a model group, a positive drug Crisaborole group, a hexadecadrol group, and compound groups, with 8 in each group. Except for the mice in the blank group, the remaining mice are applied with 100 μL of a 1% DNCB solution [acetone: olive oil=4:1 (V/V)] on the skin of the back of the shaved mice, and applied continuously for 3 days once a day. Then, dosing treatment starts 4 days after the mice are housed, and the test drug is applied to the back of each group of animals, wherein animals in the blank group and the model group are applied with a corresponding solvent, the positive drug Crisaborole group and hexadecadrol group are applied with 50 mg/mL of a corresponding drug, and the administration group is applied with 50 mg/mL of a corresponding compound, with 100 μL for each mouse; after application of 4 hours, 0.5% DNCB solution is applied for secondary challenge, and repeated administration and challenge treatment are performed 11 times, once a day. 24 hours after the last administration, the animals are sacrificed, and the back skins (1×0.4 cm^2) are taken and fixed in 10% formalin buffer to make pathological sections and perform HE staining; then, the epidermal and dermal layers are observed under a 100× […], and 5 areas are selected for detection of and recording the skin thickness, and then the average value is taken to represent the final thicknesses of the epidermal layer and dermal layer, respectively.

[2] abbreviates: 50 mg/mL topical, statistical comparison vs Crisaborole group.

Marks after values point to notes of the source that are not given here.

T1 sequence (P27815 whole entry, species assumed): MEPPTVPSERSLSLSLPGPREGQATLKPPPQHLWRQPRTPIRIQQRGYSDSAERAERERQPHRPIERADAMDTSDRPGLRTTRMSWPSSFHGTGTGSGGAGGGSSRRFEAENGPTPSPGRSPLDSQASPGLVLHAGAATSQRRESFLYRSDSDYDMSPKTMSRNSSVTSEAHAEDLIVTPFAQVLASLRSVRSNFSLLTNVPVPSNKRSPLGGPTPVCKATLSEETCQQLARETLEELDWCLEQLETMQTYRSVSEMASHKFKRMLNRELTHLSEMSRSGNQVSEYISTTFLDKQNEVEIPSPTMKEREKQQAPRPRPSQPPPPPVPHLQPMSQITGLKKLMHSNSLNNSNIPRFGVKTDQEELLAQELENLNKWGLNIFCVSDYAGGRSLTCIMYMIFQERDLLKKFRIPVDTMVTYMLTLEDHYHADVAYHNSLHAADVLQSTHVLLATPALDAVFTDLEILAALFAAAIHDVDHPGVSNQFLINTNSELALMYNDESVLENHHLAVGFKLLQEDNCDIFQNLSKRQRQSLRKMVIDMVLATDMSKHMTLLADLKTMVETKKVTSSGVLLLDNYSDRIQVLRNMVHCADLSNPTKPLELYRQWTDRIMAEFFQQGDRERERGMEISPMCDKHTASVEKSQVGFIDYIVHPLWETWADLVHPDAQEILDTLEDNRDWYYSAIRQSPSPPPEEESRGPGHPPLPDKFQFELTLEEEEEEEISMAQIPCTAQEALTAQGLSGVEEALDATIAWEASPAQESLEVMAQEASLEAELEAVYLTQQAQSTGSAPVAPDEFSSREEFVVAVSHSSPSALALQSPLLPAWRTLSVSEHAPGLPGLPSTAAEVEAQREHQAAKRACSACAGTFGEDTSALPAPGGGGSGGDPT

In general, remaining activity refers to what remains of the control signal, in per cent. A high value points to a small loss of activity. As for `COC(=O)c1cccc2cc(Oc3ccc4c(c3)COB4O)ccc12` [PD-24], on PDE4A enzyme, the remaining activity at 0.01 µM turned out to be 9.17 ± 1%, the remaining activity at 0.1 µM came out at 7.31 ± 1.16% and the remaining activity at 1 µM worked out at 2.64 ± 0.56%. Moreover, in experiment [1] (setting [2]), the “reduction of the thickness of the dermis compared with Crisaborole” value is reported as “significantly reduce the thickness of the dermis of dermatitis mice (P≤0.05)” and the “reduction of the thickness of the epidermis compared with Crisaborole” value is listed as “significantly reduce the thickness of the epidermis of the dermatitis mice (P≤0.05)”. In experiment [1], this molecule had an Epidermal thickness of 91.17 ± 9.03 μm and a Dermis thickness of 420.33 ± 24.75 μm.
On PDE4A enzyme, `NC(=O)c1ccc2nc(Oc3ccc4c(c3)COB4O)ccc2c1` [PD-13] registered a remaining activity at 0.01 µM of 21.7 ± 1.51%, a remaining activity at 0.1 µM of 8.68 ± 0.89% and a remaining activity at 1 µM of 1.44 ± 0.4%. Moreover, in experiment [1], the Epidermal thickness was 100.23 ± 11.62 μm and the Dermis thickness stood at 450.26 ± 25.55 μm.
At PDE4A enzyme, `OB1OCc2cc(Oc3cc(Cl)nc4ccc(C(F)(F)F)cc34)ccc21` [PD-28] had a remaining activity at 0.01 µM of 9.14 ± 0.89%, a remaining activity at 0.1 µM of 4.42 ± 0.64% and a remaining activity at 1 µM of 2.1 ± 0.93%. In experiment [1], the Epidermal thickness is 70.51 ± 12.45 μm and the Dermis thickness was 352.69 ± 30.77**^aa μm.
For `COC(=O)c1cc(Oc2ccc3c(c2)COB3O)nc2ccccc12` [PD-5], in that order: 9.01 ± 2.02%, 7.27 ± 1.78%, 3.46 ± 1.18%, 106.74 ± 15.14 μm and 440.12 ± 23.22 μm.

These data come from US11161860B2, “Compound having effects of inhibiting phosphodiesterase 4, preparation method thereof and pharmaceutical use thereof” (Hefei Industrial Pharmaceutical Institute Co., Ltd., priority 2018, dated 2021).
